According to paper doi:10.1101/2023.03.31.535182v2 (biorxiv, 2023):

Tested on: MsGH13
Assay: UV/Vis release of 4-nitrophenolate at […] nm
Assay type: biochemical, Marinovum sp.
Conditions: 50 mM citric acid/phosphate, 150 mM NaCl, pH 6.5, 25 °C

How did the Km turn out when `O=[N+]([O-])c1ccc(O[C@H]2O[C@H](CO)[C@@H](O)[C@H](O)[C@H]2O)cc1` [PNPGlc] was run?
Its Km is 950 ± 470 µM.
